SMILES strings stand for the structures.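 Cultured in 96-well plates, cells were exposed to test compound for 48 hours across five concentrations. Here, GI50 denotes the concentration required for 50% inhibition of growth.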 Calls of active or inactive are those of the source. Rule as the data show it: active = GI50 up to about 1.1 µM and inactive = higher.

What all share (experiment): growth of human tumour cells (NCI), 48 h
Assay [1] concerns KM12.
Assay [2] deals with SK-MEL-2.
The test system of assay [3] is SF-539.
Assay [4] deals with SK-MEL-28.
The test system of assay [5] is A549.
In assay [6] the test system is LOX IMVI.
The test system of assay [7] is Malme-3M.
The test system of assay [8] is HOP-92.
Assay [9] deals with SN12C.
Assay [10] deals with OVCAR-5.
For assay [11], the system named is NCI/ADR-RES.
The subject of assay [12] is DMS-273.
The subject of assay [13] is COLO 205.
Assay [14] concerns U-251.
In assay [15] the test system is A498.
The subject of assay [16] is M14.
In assay [17] the test system is SF-268.
Assay [18] deals with MOLT-4.
Assay [19] relates to OVCAR-4.

Take `CCN(CC)CC(C)(C)C(=O)/C=C/c1ccc(/C=C/C(=O)C(C)(C)CN(CC)CC)cc1`: the GI50 in assay [1] was 0.879 µM (active); in assay [2] it was 1.72 µM (inactive); in assay [3], 1.2 µM (inactive); in assay [4], 0.796 µM (active); in assay [5], 1.97 µM (inactive); in assay [6], 0.263 µM (active). Also, the GI50 in [7] is 1.12 µM (inactive); in [8] it was 0.397 µM (active); in [9], 0.471 µM (active); in assay [10], 1.54 µM (inactive); in assay [11] it was 1.09 µM (active); in assay [12], 0.234 µM (active). The GI50 in assay [13] is 0.339 µM (active); in assay [14] it was 0.469 µM (active); in [15], 1.7 µM (inactive); in assay [16], 1.03 µM (active); in assay [17], 0.512 µM (active); in assay [18] it was 0.14 µM (active).
On to `COc1ccc(NC(=O)C2C(=O)N(c3ccc(OC)cc3)C(=O)/C2=N/O)cc1` (stereo not drawn), for which the GI50 is 23 µM (inactive) in [1]; 32.2 µM (inactive) in assay [2]; 19.6 µM (inactive) in assay [3]; 37.8 µM (inactive) in assay [4]; 33.9 µM (inactive) in [5]; 57.8 µM (inactive) in assay [6]. The GI50 in [7] was 20.4 µM (inactive); in assay [8] it was 16.1 µM (inactive); in [9], 26.4 µM (inactive); in [10], > 100 µM (inactive); in assay [12], 26.8 µM (inactive); in assay [13], > 100 µM (inactive). Besides, the GI50 in assay [14] was 22.3 µM (inactive); in assay [15] it was 30.7 µM (inactive); in [19] it was 17.2 µM (inactive); in [16], 34 µM (inactive); in [17], 24.8 µM (inactive); in [18], > 100 µM (inactive).
As for `CC1=C(C(=O)Nc2ccccc2)C(c2ccc(N(C)C)cc2)C(C(=O)Nc2ccccc2)=C(C)N1`, the GI50 was 0.964 µM (active) in [1]; > 70.1 µM (inactive) in assay [2]; 9.59 µM (inactive) in assay [3]; 12.4 µM (inactive) in assay [4]; 3.31 µM (inactive) in assay [5]; 2.82 µM (inactive) in assay [6]. For the same molecule, the GI50 in [7] is 4.79 µM (inactive); in assay [8] it was 65.9 µM (inactive); in [9], 46.3 µM (inactive); in assay [10], 18.6 µM (inactive); in assay [11], > 100 µM (inactive); in assay [12], 0.428 µM (active). Moreover, the GI50 in assay [13] is 1.41 µM (inactive); in assay [14] it was 15.9 µM (inactive); in [15] it was > 100 µM (inactive); in assay [19] it was 50.8 µM (inactive); in assay [16], 1.5 µM (inactive); in [17], 9.31 µM (inactive). The GI50 in assay [18] was 2.89 µM (inactive).
As for `Cc1cccc(C(C)C)c1NC(=O)CCl`, the GI50 in assay [1] was 55.7 µM (inactive); in assay [2], 75.5 µM (inactive); in assay [3] it was > 100 µM (inactive); in [4], > 100 µM (inactive); in assay [5] it was > 100 µM (inactive); in [6], 37.1 µM (inactive). Also, the GI50 in assay [7] was 81.7 µM (inactive); in [8] it was 28.6 µM (inactive); in assay [9], 56.2 µM (inactive); in assay [10], > 100 µM (inactive); in [12], 69.2 µM (inactive); in [13] it was 86.9 µM (inactive). In addition, the GI50 is 40.7 µM (inactive) in assay [14]; > 100 µM (inactive) in assay [15]; 29.4 µM (inactive) in assay [19]; 65.8 µM (inactive) in [16]; 38 µM (inactive) in assay [17]; 63.7 µM (inactive) in assay [18].

These data come from ChEMBL document CHEMBL1201862, “PubChem BioAssay data set” (2004).
